Reference: patent US20020004072A1, “"COMPOSITION PROVIDING A SUSTAINED RELEASE OF L-HISTIDINE AND METHODS OF MANUFACTURE THEREOF"” (priority 1999, published 2002)

Experiment: Bulk and tapped density measurement by standard pharmaceutical methods
Format: physicochemical
Experimental: Density measurements were carried out using standard pharmaceutical methods for the measurement of bulk and tapped density. A comparison of the apparent density of the freshly dispensed or bulk powder to that of powder after settling is shown in Table 4.

## N[C@@H](Cc1c[nH]cn1)C(=O)O [L-Histidine]
Freshly dispensed or bulk powder
  Bulk Density: 0.55 g/mL
Powder after settling
  Tapped Density: 0.79 g/mL
